Measurements from the NIST ThermoML archive (doi:10.1016/j.jct.2014.02.018).
“And” between values parts separate entries of the source, which are not always exact repeats. Identical values can stand only once. Numbers after ± are expanded uncertainties.

Conditions: Crystal, Calculated from knudsen effusion weight loss

Cn1cc(F)c(=O)n(C)c1=O [2,4(1H,3H)-pyrimidinedione, 5-fluoro-1,3-dimethyl-]
Conditions | vapor or sublimation pressure
317.18 K | 8.39e-05 ± 8.9e-06 kPa and 8.8e-05 ± 9.3e-06 kPa and 8.46e-05 ± 9e-06 kPa
319.21 K | 0.0001113 ± 1.2e-05 kPa and 0.0001195 ± 1.3e-05 kPa and 0.0001105 ± 1.2e-05 kPa
321.12 K | 0.0001414 ± 1.5e-05 kPa and 0.0001372 ± 1.5e-05 kPa and 0.000135 ± 1.4e-05 kPa
323.18 K | 0.0001684 ± 1.8e-05 kPa and 0.0001645 ± 1.7e-05 kPa and 0.0001712 ± 1.8e-05 kPa
325.22 K | 0.00021 ± 2.2e-05 kPa and 0.0002051 ± 2.2e-05 kPa and 0.0002013 ± 2.1e-05 kPa
327.13 K | 0.0002547 ± 2.7e-05 kPa and 0.0002583 ± 2.7e-05 kPa and 0.0002608 ± 2.8e-05 kPa
329.18 K | 0.0003128 ± 3.3e-05 kPa and 0.0003165 ± 3.4e-05 kPa and 0.000333 ± 3.5e-05 kPa
331.22 K | 0.0004074 ± 4.3e-05 kPa and 0.0004027 ± 4.3e-05 kPa and 0.0004159 ± 4.4e-05 kPa
333.12 K | 0.0005058 ± 5.4e-05 kPa and 0.0004953 ± 5.3e-05 kPa and 0.0005012 ± 5.3e-05 kPa
335.17 K | 0.0006116 ± 6.5e-05 kPa and 0.0006003 ± 6.4e-05 kPa and 0.0006128 ± 6.5e-05 kPa
337.24 K | 0.0007507 ± 8e-05 kPa and 0.0007652 ± 8.1e-05 kPa and 0.0007436 ± 7.9e-05 kPa
339.14 K | 0.0009104 ± 9.7e-05 kPa and 0.0009266 ± 9.8e-05 kPa and 0.0009283 ± 9.8e-05 kPa

O=c1[nH]cc(F)c(=O)[nH]1 [5-fluoro-2,4(1H,3H)-pyrimidinedione]
Conditions | vapor or sublimation pressure
411.14 K | 0.000178 ± 1.9e-05 kPa and 0.000166 ± 1.8e-05 kPa and 0.000165 ± 1.8e-05 kPa
413.1 K | 0.000207 ± 2.2e-05 kPa and 0.000197 ± 2.1e-05 kPa and 0.000198 ± 2.1e-05 kPa
415.14 K | 0.000239 ± 2.5e-05 kPa and 0.000235 ± 2.5e-05 kPa and 0.000246 ± 2.6e-05 kPa
417.14 K | 0.000261 ± 2.8e-05 kPa and 0.000283 ± 3e-05 kPa and 0.000278 ± 2.9e-05 kPa
419.14 K | 0.000347 ± 3.7e-05 kPa and 0.000332 ± 3.5e-05 kPa and 0.000351 ± 3.7e-05 kPa
421.18 K | 0.000418 ± 4.4e-05 kPa and 0.000401 ± 4.3e-05 kPa and 0.000406 ± 4.3e-05 kPa
423.16 K | 0.000477 ± 5.1e-05 kPa and 0.000472 ± 5e-05 kPa and 0.000474 ± 5e-05 kPa
425.11 K | 0.000588 ± 6.2e-05 kPa and 0.000561 ± 6e-05 kPa and 0.00058 ± 6.2e-05 kPa
427.16 K | 0.000669 ± 7.1e-05 kPa and 0.000668 ± 7.1e-05 kPa
429.15 K | 0.000836 ± 8.9e-05 kPa and 0.000794 ± 8.4e-05 kPa and 0.000829 ± 8.8e-05 kPa
431.11 K | 0.001027 ± 0.00013 kPa and 0.001013 ± 0.00012 kPa and 0.000961 ± 0.0001 kPa
433.17 K | 0.001185 ± 0.00015 kPa and 0.001148 ± 0.00014 kPa and 0.001135 ± 0.00014 kPa
